Measured values: PubChem BioAssay AID2060616 (Molecular Pharmacology Branch, DTP, NCI, 2025)
“And” between values parts separate entries of the source, which are not always exact repeats. Equal entries are not always repeated.

Test system: 377384-186-R-J1-PDC complex spheroid viability
Assay: Anticancer human tumor 377384-186-R-J1-PDC patient-derived pancreatic carcinoma cell line growth inhibition [CLK]
Conditions: for viability, T/C: stronger effect = lower value
Source text: A high-throughput screen of multi-cell type tumor spheroids was designed to identify active combinations of […] and targeted small molecules. Complex spheroids include a stromal component modeled by human endothelial cells (HUVEC) and fibroblasts modeled by human mesenchymal stem cells (MSCs). The concentration ranges selected for each drug and investigational agent were based upon clinically achievable concentrations if the clinical Cmax of the agent was known.
Compounds. The drugs and investigational agents: cirtuvivint (SM08502; NSC835563), CC-671 (NSC850746), vemurafenib (NSC761431), tapotoclax (NSC804041), sotorasib (NSC818433), adagrasib (NSC831453), MRTX-1133 (NSC836407), BAY2416964 (NSC825713), copanlisib (NSC816437), inavolisib (NSC800729), abemaciclib (NSC768073), osimertinib (NSC779217), entinostat (NSC756642), eltanexor (KPT-8602, NSC794443), venetoclax (NSC766270), ceralasertib (NSC777638), bortezomib (NSC756655), olaparib (NSC753686), talazoparib (NSC767125), alisertib (NSC759677), peposertib (NSC802822), gemcitabine (NSC613327), 5-fluorouracil (NSC19893), SN-38 (NSC673596), oxaliplatin (NSC266046), paclitaxel (NSC125973), and doxorubicin (NSC123127), were obtained from the National Cancer Institute (NCI) Developmental Therapeutics Program Chemical Repository. The FDA-approved anticancer drug set is available from the Developmental Therapeutics Program at https://dtp.cancer.gov/organization/dscb/obtaining/available plates.htm. […] The stock solutions were prepared in dimethyl sulfoxide (DMSO, Sigma-Aldrich, St. Louis, MO, cat. D2650), except for the platinum complexes which were prepared in saline (Quality Biological, Gaithersburg, MD, cat. 114-055-101), at 800-fold the tested concentration and stored at -70 degrees C prior to their use. All drugs and investigational agents were tested over a range starting from a high concentration at or near the clinical Cmax and decreasing in half-log increments. If the clinical Cmax for an agent had not been determined, the highest concentration tested was 10 microM.
Cell Culture. All cells were maintained in an incubator at 37 degrees C and 5% CO2 with 95% humidity. The PDC lines were cultured according to standard operating procedures established by the NCI PDMR. Briefly, all PDCs were thawed and cultured in Matrigel-coated flasks prepared with a working solution of 1X Ham's F-12 nutrient mix, without supplementation (Invitrogen, Waltham, MA, cat. 11765054), 100 U/mL penicillin-streptomycin (Invitrogen, cat. 15140122), and 2.5% Matrigel (Corning Inc., Corning, NY, cat. 354248) for the first three passages. The 947758-054-R-J2-PDC line was cultured in 6B/Colon 1A media, which includes advanced DMEM/F-12 (Thermo Fisher Scientific, cat. 12634028), 10 mM HEPES (Thermo Fisher Scientific, cat. 15630080), 1X GlutaMAX supplement (Thermo Fisher Scientific, cat. 35050061), 0.1 mg/mL primocin (InvivoGen, cat. ant-pm-2), 10% defined fetal bovine serum, heat inactivated (HyClone Laboratories Inc., cat. SH30070.03HI), 1.25 mM N-Acetyl-L-cysteine (Sigma-Aldrich, cat. A9165), 10 mM nicotinamide (Sigma-Aldrich, cat. N0636), 1X B-27 supplement (Thermo Fisher Scientific, cat. 17504044), 1X N-2 supplement (Thermo Fisher Scientific, cat. 17502048), and 10 microM Y-27632 dihydrochloride (Tocris Bioscience, cat. 1254). The 876862-298-R-J1-PDC was cultured in 6E media, which includes all 6B/Colon 1A media components plus 50% L-WRN conditioned media (ATCC, cat. CRL-3276), 50 ng/mL recombinant human EGF recombinant protein (hEGF; Thermo Fisher Scientific, cat. PHG0311), 10 ng/mL recombinant human fibroblast growth factor 10 (hGFG-10; PeproTech, cat. 100-26), 1 ng/mL recombinant human fibroblast growth factor 2 (hFGF-2; PeproTech, cat. 100-18B), and 1 µM prostaglandin E2 (PGE2; Tocris, cat. 2296). The 227483-062-R1-J1-PDC line was cultured in Panc media, containing all 6E components except hFGF-2, with the addition of 500 nM SB-431542 (Selleckchem, cat. S1067) and 10 nM gastrin (Tocris, cat. 3006). […]
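Also: spheroids exposed to agents for 7 days before reading.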
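For viability, T/C in this document: luminescence signal used as a stand-in for viable cells.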

CCN1CCN(Cc2ccc(Nc3ncc(F)c(-c4cc(F)c5nc(C)n(C(C)C)c5c4)n3)nc2)CC1 + CN1CCN(c2cc(C(=O)Nc3cc4cc(-c5cnn(C)c5)ccc4cn3)ccn2)CC1
IC50 (curve of first compound, second compound 0.0316 µM): 364 nM
IC50 (curve of first compound, second compound 0.1 µM): 514 nM
IC50 (curve of first compound, second compound 0.316 µM): < 3.16 nM
IC50 (curve of first compound, second compound 1 µM): < 3.16 nM
IC50 (curve of first compound, second compound 3.16 µM): < 3.16 nM
IC50 (curve of first compound, second compound 10 µM): < 3.16 nM
viability, T/C (second compound 0.0316 µM, first compound 0.00316 µM): 107%
viability, T/C (second compound 0.0316 µM, first compound 0.01 µM): 78.2%
viability, T/C (second compound 0.0316 µM, first compound 0.0316 µM): 84%
viability, T/C (second compound 0.0316 µM, first compound 0.1 µM): 66.3%
viability, T/C (second compound 0.0316 µM, first compound 0.316 µM): 48.8%
viability, T/C (second compound 0.0316 µM, first compound 1 µM): 39.5%
viability, T/C (second compound 0.1 µM, first compound 0.00316 µM): 98.1%
viability, T/C (second compound 0.1 µM, first compound 0.01 µM): 101%
viability, T/C (second compound 0.1 µM, first compound 0.0316 µM): 76.7%
viability, T/C (second compound 0.1 µM, first compound 0.1 µM): 79.8%
viability, T/C (second compound 0.1 µM, first compound 0.316 µM): 54.6%
viability, T/C (second compound 0.1 µM, first compound 1 µM): 40.5%
viability, T/C (second compound 0.316 µM, first compound 0.00316 µM): 24.1%
viability, T/C (second compound 0.316 µM, first compound 0.01 µM): 28.6%
viability, T/C (second compound 0.316 µM, first compound 0.0316 µM): 26%
viability, T/C (second compound 0.316 µM, first compound 0.1 µM): 22.9%
viability, T/C (second compound 0.316 µM, first compound 0.316 µM): 24.4%
viability, T/C (second compound 0.316 µM, first compound 1 µM): 24.4%
viability, T/C (second compound 1 µM, first compound 0.00316 µM): 1.06%
viability, T/C (second compound 1 µM, first compound 0.01 µM): 1.3%
viability, T/C (second compound 1 µM, first compound 0.0316 µM): 1.79%
viability, T/C (second compound 1 µM, first compound 0.1 µM): 1.66%
viability, T/C (second compound 1 µM, first compound 0.316 µM): 1.27%
viability, T/C (second compound 1 µM, first compound 1 µM): 1.25%
viability, T/C (second compound 3.16 µM, first compound 0.00316 µM): 0.33%
viability, T/C (second compound 3.16 µM, first compound 0.01 µM): 0.44%
viability, T/C (second compound 3.16 µM, first compound 0.0316 µM): 1.09%
viability, T/C (second compound 3.16 µM, first compound 0.1 µM): 0.39%
viability, T/C (second compound 3.16 µM, first compound 0.316 µM): 2.28%
viability, T/C (second compound 3.16 µM, first compound 1 µM): 2.3%
viability, T/C (second compound 10 µM, first compound 0.00316 µM): 1.2%
viability, T/C (second compound 10 µM, first compound 0.01 µM): 0.43%
viability, T/C (second compound 10 µM, first compound 0.0316 µM): 0.55%
viability, T/C (second compound 10 µM, first compound 0.1 µM): 0.44%
viability, T/C (second compound 10 µM, first compound 0.316 µM): 1.76%
viability, T/C (second compound 10 µM, first compound 1 µM): 0.24%

CCN1CCN(Cc2ccc(Nc3ncc(F)c(-c4cc(F)c5nc(C)n(C(C)C)c5c4)n3)nc2)CC1
viability, T/C (compound 0.00316 µM): 84.8% and 87.7%
viability, T/C (compound 0.01 µM): 74.9% and 74.1%
viability, T/C (compound 0.0316 µM): 74% and 73.8%
viability, T/C (compound 0.1 µM): 61% and 58.6%
viability, T/C (compound 0.316 µM): 45.6% and 50.9%
viability, T/C (compound 1 µM): 39.5% and 40.4%
IC50 (curve of compound): 245 nM and 335 nM
